Tests used:
[1] = target: T1, Dual serine/threonine and tyrosine protein kinase (Homo sapiens) (UniProt Q6XUX3); assay: Inhibition of human RIPK5 using myelin basic protein as substrate at 1 uM in presence of 32P-ATP by Hotspot assay relative to control; values are per cent of control
T1 sequence (whole entry): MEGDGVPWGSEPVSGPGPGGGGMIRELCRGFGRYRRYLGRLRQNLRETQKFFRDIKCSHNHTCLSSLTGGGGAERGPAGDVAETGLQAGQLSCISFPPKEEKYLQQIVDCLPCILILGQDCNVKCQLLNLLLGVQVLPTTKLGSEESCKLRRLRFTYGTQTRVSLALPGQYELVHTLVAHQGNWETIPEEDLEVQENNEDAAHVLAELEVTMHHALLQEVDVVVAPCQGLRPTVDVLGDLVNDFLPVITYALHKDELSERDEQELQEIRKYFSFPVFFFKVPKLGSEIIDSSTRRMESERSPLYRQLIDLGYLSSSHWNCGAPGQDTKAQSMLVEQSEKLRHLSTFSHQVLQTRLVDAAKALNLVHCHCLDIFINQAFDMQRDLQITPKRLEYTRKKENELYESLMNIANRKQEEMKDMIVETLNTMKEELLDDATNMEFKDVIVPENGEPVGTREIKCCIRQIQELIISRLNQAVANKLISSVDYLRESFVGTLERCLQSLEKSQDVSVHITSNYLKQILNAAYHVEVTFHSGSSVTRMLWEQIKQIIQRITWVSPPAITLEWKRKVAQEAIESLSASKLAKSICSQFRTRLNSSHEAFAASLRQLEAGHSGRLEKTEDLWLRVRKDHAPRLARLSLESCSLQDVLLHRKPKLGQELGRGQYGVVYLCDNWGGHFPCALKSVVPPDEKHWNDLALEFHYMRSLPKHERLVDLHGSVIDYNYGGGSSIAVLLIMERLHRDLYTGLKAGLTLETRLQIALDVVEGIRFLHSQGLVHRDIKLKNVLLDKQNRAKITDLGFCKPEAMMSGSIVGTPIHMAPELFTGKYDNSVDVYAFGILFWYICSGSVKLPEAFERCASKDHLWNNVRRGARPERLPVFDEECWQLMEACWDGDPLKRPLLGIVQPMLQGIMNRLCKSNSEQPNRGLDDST

[2] = target: T2, Serine/threonine-protein kinase Nek11 (Homo sapiens) (UniProt Q8NG66); assay: Inhibition of human NEK11 using myelin basic protein as substrate at 1 uM in presence of 32P-ATP by Hotspot assay relative to control; values are per cent of control
T2 sequence (whole entry): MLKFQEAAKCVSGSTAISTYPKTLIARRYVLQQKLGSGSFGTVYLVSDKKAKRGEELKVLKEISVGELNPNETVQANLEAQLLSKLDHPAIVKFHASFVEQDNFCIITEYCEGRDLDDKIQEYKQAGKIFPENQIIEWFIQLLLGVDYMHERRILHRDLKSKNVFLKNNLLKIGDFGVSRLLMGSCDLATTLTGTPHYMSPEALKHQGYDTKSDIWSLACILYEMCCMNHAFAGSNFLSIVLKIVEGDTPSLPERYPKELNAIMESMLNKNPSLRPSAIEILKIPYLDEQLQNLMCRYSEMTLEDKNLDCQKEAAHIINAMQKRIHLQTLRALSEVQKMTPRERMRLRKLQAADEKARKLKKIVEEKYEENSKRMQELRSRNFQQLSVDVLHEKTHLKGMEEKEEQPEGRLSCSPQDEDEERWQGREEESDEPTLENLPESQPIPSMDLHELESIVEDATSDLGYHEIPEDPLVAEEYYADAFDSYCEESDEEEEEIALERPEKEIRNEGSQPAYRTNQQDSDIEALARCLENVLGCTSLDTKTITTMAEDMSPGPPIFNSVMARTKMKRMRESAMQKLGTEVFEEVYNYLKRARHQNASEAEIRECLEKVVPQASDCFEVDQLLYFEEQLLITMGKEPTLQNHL

[3] = target: Tyrosine-protein kinase ABL2 (Homo sapiens) (UniProt P42684); assay: Inhibition of human ABL2/ARG using EAIYAAPFAKKK as substrate at 1 uM in presence of 32P-ATP by Hotspot assay relative to control; values are per cent of control
Tyrosine-protein kinase ABL2 (Homo sapiens), sequence (P42684 whole entry): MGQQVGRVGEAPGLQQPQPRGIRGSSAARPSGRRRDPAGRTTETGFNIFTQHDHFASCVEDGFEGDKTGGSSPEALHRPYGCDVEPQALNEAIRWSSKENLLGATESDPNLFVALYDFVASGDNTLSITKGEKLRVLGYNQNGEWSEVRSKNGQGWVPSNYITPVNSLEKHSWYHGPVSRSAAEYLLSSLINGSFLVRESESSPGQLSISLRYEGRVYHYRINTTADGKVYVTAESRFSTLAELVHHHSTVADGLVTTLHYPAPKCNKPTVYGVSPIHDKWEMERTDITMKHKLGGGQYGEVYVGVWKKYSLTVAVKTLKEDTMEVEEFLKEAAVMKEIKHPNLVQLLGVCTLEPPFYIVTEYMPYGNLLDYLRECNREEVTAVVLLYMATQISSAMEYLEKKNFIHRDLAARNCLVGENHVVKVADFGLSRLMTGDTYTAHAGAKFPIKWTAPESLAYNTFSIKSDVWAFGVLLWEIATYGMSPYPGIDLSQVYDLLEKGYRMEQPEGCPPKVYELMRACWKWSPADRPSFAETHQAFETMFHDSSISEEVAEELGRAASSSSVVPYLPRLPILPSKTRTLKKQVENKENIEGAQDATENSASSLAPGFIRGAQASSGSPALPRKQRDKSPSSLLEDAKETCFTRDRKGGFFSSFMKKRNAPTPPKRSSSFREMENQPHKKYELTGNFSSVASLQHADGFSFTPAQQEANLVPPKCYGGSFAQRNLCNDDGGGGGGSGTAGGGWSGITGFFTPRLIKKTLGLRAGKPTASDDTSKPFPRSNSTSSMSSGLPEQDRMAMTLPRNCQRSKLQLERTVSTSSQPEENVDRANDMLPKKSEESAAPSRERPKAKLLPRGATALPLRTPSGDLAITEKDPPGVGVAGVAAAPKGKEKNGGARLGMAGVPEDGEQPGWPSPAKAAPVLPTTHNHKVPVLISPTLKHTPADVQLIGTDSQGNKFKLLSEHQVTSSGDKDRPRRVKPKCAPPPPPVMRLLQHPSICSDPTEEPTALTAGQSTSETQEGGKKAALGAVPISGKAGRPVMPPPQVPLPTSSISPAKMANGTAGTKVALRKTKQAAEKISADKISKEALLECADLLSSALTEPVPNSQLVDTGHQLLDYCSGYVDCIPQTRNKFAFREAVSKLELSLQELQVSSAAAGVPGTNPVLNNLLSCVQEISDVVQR

[4] = target: CDK6/cyclin D1 (Homo sapiens) (UniProt P24385+Q00534); assay: Inhibition of human CDK6/cyclin D1 using RB Protein as substrate at 1 uM in presence of 32P-ATP by Hotspot assay relative to control; values are per cent of control
[5] = target: Casein kinase I isoform delta (Homo sapiens) (UniProt P48730); assay: Inhibition of human CK1d using KRRRAL[pS]VASLPGL as substrate at 1 uM in presence of 32P-ATP by Hotspot assay relative to control; values are per cent of control
Casein kinase I isoform delta (Homo sapiens), sequence (P48730 whole entry, looked up, canonical isoform): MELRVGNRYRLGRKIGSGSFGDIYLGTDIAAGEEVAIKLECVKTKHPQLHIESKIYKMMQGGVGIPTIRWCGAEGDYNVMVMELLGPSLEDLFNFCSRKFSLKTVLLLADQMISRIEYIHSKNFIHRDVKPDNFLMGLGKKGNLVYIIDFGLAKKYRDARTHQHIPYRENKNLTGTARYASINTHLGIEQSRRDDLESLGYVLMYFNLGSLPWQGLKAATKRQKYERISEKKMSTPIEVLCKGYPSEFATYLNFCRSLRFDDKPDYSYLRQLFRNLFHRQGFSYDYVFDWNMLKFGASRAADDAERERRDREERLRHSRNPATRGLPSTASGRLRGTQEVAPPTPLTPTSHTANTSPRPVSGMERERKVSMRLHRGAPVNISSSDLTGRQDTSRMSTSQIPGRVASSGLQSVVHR

[6] = target: Casein kinase I isoform alpha (Homo sapiens) (UniProt P48729); assay: Inhibition of human CK1a1 using KRRRAL[pS]VASLPGL as substrate at 1 uM in presence of 32P-ATP by Hotspot assay relative to control; values are per cent of control
Casein kinase I isoform alpha (Homo sapiens), sequence (P48729 2-337 limits assumed): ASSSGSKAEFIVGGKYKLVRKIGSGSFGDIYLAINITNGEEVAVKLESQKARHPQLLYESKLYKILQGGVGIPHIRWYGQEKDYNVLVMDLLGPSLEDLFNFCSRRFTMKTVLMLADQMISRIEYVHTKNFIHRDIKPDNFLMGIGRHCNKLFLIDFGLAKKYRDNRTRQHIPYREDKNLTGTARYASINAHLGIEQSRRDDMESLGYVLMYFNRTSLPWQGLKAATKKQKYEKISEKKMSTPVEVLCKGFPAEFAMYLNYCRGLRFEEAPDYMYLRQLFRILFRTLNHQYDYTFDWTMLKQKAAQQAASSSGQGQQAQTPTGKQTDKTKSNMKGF

[7] = target: Serine/threonine-protein kinase MARK2 (Homo sapiens) (UniProt Q7KZI7); assay: Inhibition of human MARK2/PAR-1Ba using KKKVSRSGLYRSPSMPENLNRPR as substrate at 1 uM in presence of 32P-ATP by Hotspot assay relative to control; values are per cent of control
Serine/threonine-protein kinase MARK2 (Homo sapiens), sequence (Q7KZI7 whole entry): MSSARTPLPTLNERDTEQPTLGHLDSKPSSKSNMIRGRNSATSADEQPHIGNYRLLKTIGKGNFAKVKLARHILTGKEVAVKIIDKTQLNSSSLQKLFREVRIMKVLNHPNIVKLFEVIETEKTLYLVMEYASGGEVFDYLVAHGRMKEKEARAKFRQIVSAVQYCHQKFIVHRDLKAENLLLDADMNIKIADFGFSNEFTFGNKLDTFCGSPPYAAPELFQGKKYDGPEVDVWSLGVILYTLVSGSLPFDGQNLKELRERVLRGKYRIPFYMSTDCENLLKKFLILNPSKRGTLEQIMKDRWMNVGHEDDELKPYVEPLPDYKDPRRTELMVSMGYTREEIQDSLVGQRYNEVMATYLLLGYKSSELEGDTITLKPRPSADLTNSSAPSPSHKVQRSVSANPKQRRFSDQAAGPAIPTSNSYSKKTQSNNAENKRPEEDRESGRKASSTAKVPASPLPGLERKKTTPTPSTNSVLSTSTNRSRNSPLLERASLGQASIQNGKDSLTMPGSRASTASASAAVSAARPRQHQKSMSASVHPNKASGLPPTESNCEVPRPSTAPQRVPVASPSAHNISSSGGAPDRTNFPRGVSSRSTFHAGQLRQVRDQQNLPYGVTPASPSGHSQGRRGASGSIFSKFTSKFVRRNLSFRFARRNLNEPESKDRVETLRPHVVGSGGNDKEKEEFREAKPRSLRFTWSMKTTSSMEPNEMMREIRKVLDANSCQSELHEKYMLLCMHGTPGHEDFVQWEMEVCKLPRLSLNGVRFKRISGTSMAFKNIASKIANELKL

[8] = target: T3, Serine/threonine-protein kinase NLK (Homo sapiens) (UniProt Q9UBE8); assay: Inhibition of human NLK using myelin basic protein as substrate at 1 uM in presence of 32P-ATP by Hotspot assay relative to control; values are per cent of control
T3 sequence (whole entry): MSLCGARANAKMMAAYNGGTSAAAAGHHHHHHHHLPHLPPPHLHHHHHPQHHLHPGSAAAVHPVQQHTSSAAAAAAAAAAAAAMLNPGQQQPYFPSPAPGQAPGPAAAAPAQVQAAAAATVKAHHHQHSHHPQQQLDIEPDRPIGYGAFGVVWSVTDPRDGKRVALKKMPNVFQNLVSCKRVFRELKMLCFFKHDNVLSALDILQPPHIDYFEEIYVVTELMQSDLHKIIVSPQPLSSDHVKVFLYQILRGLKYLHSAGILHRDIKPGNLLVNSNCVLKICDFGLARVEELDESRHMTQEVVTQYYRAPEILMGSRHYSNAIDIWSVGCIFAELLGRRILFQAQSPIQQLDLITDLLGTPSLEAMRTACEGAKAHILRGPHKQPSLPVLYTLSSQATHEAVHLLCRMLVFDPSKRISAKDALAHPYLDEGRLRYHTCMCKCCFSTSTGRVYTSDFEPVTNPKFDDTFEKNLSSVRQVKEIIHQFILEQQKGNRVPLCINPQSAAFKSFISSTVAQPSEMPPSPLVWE

Row | Structure (SMILES) | residual activity [1] | residual activity [2] | residual activity [3] | residual activity [4] | residual activity [5] | residual activity [6] | residual activity [7] | residual activity [8]
1 | Cc1cc(-c2cnc(N)c3c(-c4ccc5scnc5c4)csc23)n(C)n1 | 101% | 97.3% | 7.38% | 98.2% | 84.6% | 88.4% | 95.2% | 6.75%
2 | CC(C)S(=O)(=O)c1ccc2nccc(Nc3ccc4scnc4c3)c2c1 | 106% | 89.5% | 12% | 101% | 104% | 105% | 96.6% | 41.8%
3 | CNC(=O)c1ccc2c(c1)ncn2-c1ccc(CC(=O)OC(C)(C)C)cc1 | 95.6% | 102% | 78.2% | 96.6% | 101% | 98.5% | 95.6% | 99.7%

— ChEMBL document CHEMBL5649166, “RIP3 induces apoptosis independent of pronecrotic kinase activity” (Mol Cell, 2014)
